Assay results from patent publication US7786141B2 (Vertex Pharmaceuticals Incorporated, priority 2004, dated 2010).

Legend:
M1 muscarinic receptor = biological target: T1, M1 muscarinic receptor (Homo sapiens, UniProt P11229); test: Functional mobilization of intracellular calcium (FLIPR) in M1-CHO cells; assay type: cell-based; details: Table 4; for Emax: 100% efficacy is the maximum response obtained with the Carbachol control; for M1 Activity: modulating M1 receptor
T1 construct: expressed in transfected cells; host or cells: CHO (M1-CHO)
T1 sequence (P11229 1-460): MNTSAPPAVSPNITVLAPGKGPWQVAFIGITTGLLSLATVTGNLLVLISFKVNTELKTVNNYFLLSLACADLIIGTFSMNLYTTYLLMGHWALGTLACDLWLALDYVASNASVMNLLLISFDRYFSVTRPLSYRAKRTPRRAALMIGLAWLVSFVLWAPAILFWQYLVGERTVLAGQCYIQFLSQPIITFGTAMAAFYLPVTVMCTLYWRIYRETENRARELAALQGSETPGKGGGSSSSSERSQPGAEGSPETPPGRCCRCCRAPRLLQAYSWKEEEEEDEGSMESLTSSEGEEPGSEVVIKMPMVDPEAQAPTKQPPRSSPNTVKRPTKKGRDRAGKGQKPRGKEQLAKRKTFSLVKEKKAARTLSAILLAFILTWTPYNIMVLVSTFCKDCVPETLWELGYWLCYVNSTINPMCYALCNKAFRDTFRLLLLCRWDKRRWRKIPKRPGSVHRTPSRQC
How it was run: (§1)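 Intracellular calcium rise is measured by FLIPR fluorescence over 60 sec in CHO cells carrying human M1 or M4 receptors. Compounds are tested alone as agonists, or pre-incubated 15 min (or co-applied) ahead of carbachol at its EC80 to detect inhibition.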

M4 muscarinic receptor = biological target: T2, M4 muscarinic receptor (Homo sapiens, UniProt P08173); test: Functional mobilization of intracellular calcium (FLIPR) in M4-CHO cells; assay type: cell-based; details: Table 4; for Emax: 100% efficacy is the maximum response obtained with the Carbachol control; for M4 Activity: modulating M4 receptor
T2 construct: expressed in transfected cells; host or cells: CHO (M4-CHO)
T2 sequence (P08173 1-479): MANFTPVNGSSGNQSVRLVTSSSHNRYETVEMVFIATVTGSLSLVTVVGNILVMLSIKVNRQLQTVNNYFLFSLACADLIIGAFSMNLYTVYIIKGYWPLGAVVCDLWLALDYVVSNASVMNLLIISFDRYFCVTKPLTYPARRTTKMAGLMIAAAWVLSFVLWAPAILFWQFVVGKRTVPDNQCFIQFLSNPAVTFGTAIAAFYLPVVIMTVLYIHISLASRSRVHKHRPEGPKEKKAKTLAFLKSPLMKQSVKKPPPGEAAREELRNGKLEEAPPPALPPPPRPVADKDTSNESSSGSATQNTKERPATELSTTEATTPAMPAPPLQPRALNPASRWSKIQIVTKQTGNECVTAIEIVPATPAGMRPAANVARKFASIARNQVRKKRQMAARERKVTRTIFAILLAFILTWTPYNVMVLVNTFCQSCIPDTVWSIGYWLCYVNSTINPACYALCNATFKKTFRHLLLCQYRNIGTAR
How it was run: as §1

`COCC(=O)N1CCC(N2CCC3(CC2)CN(C(=O)N(C)C)c2ccc(F)cc23)CC1` [compound 674] was tested, and the Emax (M1 muscarinic receptor) was 25 to 100%, the “M1 Activity” value (M1 muscarinic receptor) was “x (activity was measured to be greater than 5.0 μM)” and the Emax (M4 muscarinic receptor) was 25 to 100%. The “M4 Activity” value (M4 muscarinic receptor) was “x (activity was measured to be greater than 5.0 μM)”.

For `CCC#CCOC(=O)N1CC[C@H](CN2CCC3(CC2)CN(C(=O)N(C)C)c2ccc(F)cc23)C1` [compound 675], the Emax (M1 muscarinic receptor) was 25 to 100%, the “M1 Activity” value (M1 muscarinic receptor) was “xxx (activity was measured to be less than 2.0 μM)” and the Emax (M4 muscarinic receptor) was 25 to 100%. The “M4 Activity” value (M4 muscarinic receptor) was “xxx (activity was measured to be less than 2.0 μM)”.

With `CCOC(=O)N1CCC(N2CCC3(CC2)CN(C(C)=O)c2c(-c4ccncc4)cccc23)CC1` [compound 677] the Emax (M1 muscarinic receptor) was 25 to 100%, the “M1 Activity” value (M1 muscarinic receptor) was “x (activity was measured to be greater than 5.0 μM)” and the Emax (M4 muscarinic receptor) was less than 25%. For the same molecule, the “M4 Activity” value (M4 muscarinic receptor) was “x (activity was measured to be greater than 5.0 μM)”.

`CC(=O)N1CC2(CCN(C3CCN(c4cncc(-c5ccccc5C)n4)CC3)CC2)c2ccccc21` [compound 678] was tested, and the Emax (M1 muscarinic receptor) was 25 to 100%, the “M1 Activity” value (M1 muscarinic receptor) was “xxx (activity was measured to be less than 2.0 μM)” and the Emax (M4 muscarinic receptor) was less than 25%. For the same molecule, the “M4 Activity” value (M4 muscarinic receptor) was “x (activity was measured to be greater than 5.0 μM)”.

For `COC(=O)N1C2CCC1CC(N1CCC3(CC1)CN(C(C)=O)c1ccccc13)C2` (stereo not shown) [compound 679], the Emax (M1 muscarinic receptor) was 25 to 100%, the “M1 Activity” value (M1 muscarinic receptor) was “xxx (activity was measured to be less than 2.0 μM)” and the Emax (M4 muscarinic receptor) was 25 to 100%. The “M4 Activity” value (M4 muscarinic receptor) was “xxx (activity was measured to be less than 2.0 μM)”.

With `COC(=O)N1CC[C@H](CN2CCC3(CC2)CN(C(C)=O)c2ccccc23)C1` [compound 680] the Emax (M1 muscarinic receptor) was 25 to 100%, the “M1 Activity” value (M1 muscarinic receptor) was “xx (activity was measured to be between 2.0 μM and 5.0 μM)” and the Emax (M4 muscarinic receptor) was 25 to 100%. For the same molecule, the “M4 Activity” value (M4 muscarinic receptor) was “xxx (activity was measured to be less than 2.0 μM)”.

With `COCCOC(=O)N1CC[C@H](CN2CCC3(CC2)CN(C(C)=O)c2ccccc23)C1` [compound 681] the Emax (M1 muscarinic receptor) was 25 to 100%, the “M1 Activity” value (M1 muscarinic receptor) was “x (activity was measured to be greater than 5.0 μM)” and the Emax (M4 muscarinic receptor) was less than 25%. For the same molecule, the “M4 Activity” value (M4 muscarinic receptor) was “x (activity was measured to be greater than 5.0 μM)”.

With `CC(=O)N[C@@H]1CC2(CCN(C3CCC3)CC2)c2ccccc21` [compound 682] the Emax (M1 muscarinic receptor) was less than 25%, the “M1 Activity” value (M1 muscarinic receptor) was “x (activity was measured to be greater than 5.0 μM)” and the Emax (M4 muscarinic receptor) was less than 25%. The “M4 Activity” value (M4 muscarinic receptor) was “x (activity was measured to be greater than 5.0 μM)”.

`CCCCOC(=O)N1CCC(N2CCC3(CC2)CN(C(C)=O)c2ccccc23)CC1` [compound 683] was tested, and the Emax (M1 muscarinic receptor) was 25 to 100%, the “M1 Activity” value (M1 muscarinic receptor) was “xx (activity was measured to be between 2.0 μM and 5.0 μM)” and the Emax (M4 muscarinic receptor) was less than 25%. The “M4 Activity” value (M4 muscarinic receptor) was “x (activity was measured to be greater than 5.0 μM)”.

For `CC(=O)N[C@H]1CC2(CCN(CC3CCN(C(=O)O[C@@H]4CCOC4)CC3)CC2)c2ccccc21` [compound 684], the Emax (M1 muscarinic receptor) was less than 25%, the “M1 Activity” value (M1 muscarinic receptor) was “x (activity was measured to be greater than 5.0 μM)” and the Emax (M4 muscarinic receptor) was less than 25%. For the same molecule, the “M4 Activity” value (M4 muscarinic receptor) was “x (activity was measured to be greater than 5.0 μM)”.

In the case of `CN(C)C(=O)N1CC2(CCN(C3CCNCC3)CC2)c2cc(F)ccc21` [compound 685], the Emax (M1 muscarinic receptor) is reported as less than 25%, the “M1 Activity” value (M1 muscarinic receptor) is reported as “x (activity was measured to be greater than 5.0 μM)” and the Emax (M4 muscarinic receptor) is reported as 25 to 100%. The “M4 Activity” value (M4 muscarinic receptor) was “xxx (activity was measured to be less than 2.0 μM)”.

With `CCOC(=O)N1C2CCC1CC(N1CCC3(CC1)CN(C(C)=O)c1c(C(F)(F)F)cccc13)C2` (stereo not shown) [compound 686] the Emax (M1 muscarinic receptor) was less than 25%, the “M1 Activity” value (M1 muscarinic receptor) was “x (activity was measured to be greater than 5.0 μM)” and the Emax (M4 muscarinic receptor) was less than 25%. The “M4 Activity” value (M4 muscarinic receptor) was “x (activity was measured to be greater than 5.0 μM)”.

In the case of `CN(C)C(=O)N[C@H]1CC2(CCN(CCC3CC4CC[C@@H]3C4)CC2)c2ccccc21` (stereo partly shown) [compound 687], the Emax (M1 muscarinic receptor) is reported as less than 25%, the “M1 Activity” value (M1 muscarinic receptor) is reported as “x (activity was measured to be greater than 5.0 μM)” and the Emax (M4 muscarinic receptor) is reported as less than 25%. For the same molecule, the “M4 Activity” value (M4 muscarinic receptor) was “x (activity was measured to be greater than 5.0 μM)”.

In the case of `CCOC(=O)N1CCC(N2CCC3(CC2)CN(C(=O)N2CCCCC2)c2ccccc23)CC1` [compound 688], the Emax (M1 muscarinic receptor) is reported as 25 to 100%, the “M1 Activity” value (M1 muscarinic receptor) is reported as “xxx (activity was measured to be less than 2.0 μM)” and the Emax (M4 muscarinic receptor) is reported as 25 to 100%. The “M4 Activity” value (M4 muscarinic receptor) was “xxx (activity was measured to be less than 2.0 μM)”.

`CCOC(=O)N1CCC(N2CCC3(CC2)CN(C2CCC4(CC2)OCCO4)c2ccc(F)cc23)CC1` [compound 689] was tested, and the Emax (M1 muscarinic receptor) was greater than 100%, the “M1 Activity” value (M1 muscarinic receptor) was “xxx (activity was measured to be less than 2.0 μM)” and the Emax (M4 muscarinic receptor) was 25 to 100%. For the same molecule, the “M4 Activity” value (M4 muscarinic receptor) was “xxx (activity was measured to be less than 2.0 μM)”.

In the case of `CC(=O)N[C@H]1CC2(CCN(C3CCCCC3)C2)c2ccc(F)cc21` (stereo partly shown) [compound 691], the Emax (M1 muscarinic receptor) is reported as 25 to 100%, the “M1 Activity” value (M1 muscarinic receptor) is reported as “x (activity was measured to be greater than 5.0 μM)” and the Emax (M4 muscarinic receptor) is reported as less than 25%. The “M4 Activity” value (M4 muscarinic receptor) was “x (activity was measured to be greater than 5.0 μM)”.

In the case of `CC(=O)N[C@H]1CC2(CCN(CC3CC4C=CC3C4)C2)c2ccc(F)cc21` (stereo partly shown) [compound 692], the Emax (M1 muscarinic receptor) is reported as 25 to 100%, the “M1 Activity” value (M1 muscarinic receptor) is reported as “xxx (activity was measured to be less than 2.0 μM)” and the Emax (M4 muscarinic receptor) is reported as 25 to 100%. The “M4 Activity” value (M4 muscarinic receptor) was “xxx (activity was measured to be less than 2.0 μM)”.

With `CCC#CCOC(=O)N1CCC(N2CCC3(CC2)CN(C(=O)N(C)C)c2ccc(F)cc23)CC1` [compound 694] the Emax (M1 muscarinic receptor) was 25 to 100%, the “M1 Activity” value (M1 muscarinic receptor) was “xxx (activity was measured to be less than 2.0 μM)” and the Emax (M4 muscarinic receptor) was 25 to 100%. The “M4 Activity” value (M4 muscarinic receptor) was “xxx (activity was measured to be less than 2.0 μM)”.

In the case of `CCOC(=O)N1CC[C@H](CN2CCC3(CC2)CN(C(=O)N(C)C)c2ccc(F)cc23)C1` [compound 695], the Emax (M1 muscarinic receptor) is reported as 25 to 100%, the “M1 Activity” value (M1 muscarinic receptor) is reported as “xxx (activity was measured to be less than 2.0 μM)” and the Emax (M4 muscarinic receptor) is reported as 25 to 100%. The “M4 Activity” value (M4 muscarinic receptor) was “xxx (activity was measured to be less than 2.0 μM)”.

`CC(=O)N[C@H]1CCC2(CCN([C@@H]3CC4CC[C@@H]3C4)CC2)c2ccccc21` [compound 696] was tested, and the Emax (M1 muscarinic receptor) was 25 to 100%, the “M1 Activity” value (M1 muscarinic receptor) was “xx (activity was measured to be between 2.0 μM and 5.0 μM)” and the Emax (M4 muscarinic receptor) was 25 to 100%. For the same molecule, the “M4 Activity” value (M4 muscarinic receptor) was “xxx (activity was measured to be less than 2.0 μM)”.

`CC(=O)CN1CCC(N2CCC3(CC2)CN(C(C)=O)c2ccc(F)cc23)CC1` [compound 697] was tested, and the Emax (M1 muscarinic receptor) was 25 to 100%, the “M1 Activity” value (M1 muscarinic receptor) was “x (activity was measured to be greater than 5.0 μM)” and the Emax (M4 muscarinic receptor) was less than 25%. The “M4 Activity” value (M4 muscarinic receptor) was “x (activity was measured to be greater than 5.0 μM)”.

`CCOC(=O)N1CCCC(N2CCC3(CC2)CN(C(=O)N(C)C)c2ccc(F)cc23)CC1` (stereo not shown) [compound 698] was tested, and the Emax (M1 muscarinic receptor) was greater than 100%, the “M1 Activity” value (M1 muscarinic receptor) was “xxx (activity was measured to be less than 2.0 μM)” and the Emax (M4 muscarinic receptor) was greater than 100%. For the same molecule, the “M4 Activity” value (M4 muscarinic receptor) was “xxx (activity was measured to be less than 2.0 μM)”.

For `CCCN1CCC(N2CCC3(CC2)CN(C(C)=O)c2ccc(F)cc23)CC1` [compound 699], the Emax (M1 muscarinic receptor) was less than 25%, the “M1 Activity” value (M1 muscarinic receptor) was “x (activity was measured to be greater than 5.0 μM)” and the Emax (M4 muscarinic receptor) was less than 25%. The “M4 Activity” value (M4 muscarinic receptor) was “x (activity was measured to be greater than 5.0 μM)”.

For `CCOC(=O)N1CCC(N2CCC3(CC2)CN(c2nc(C)ns2)c2ccccc23)CC1` [compound 700], the Emax (M1 muscarinic receptor) was greater than 100%, the “M1 Activity” value (M1 muscarinic receptor) was “xxx (activity was measured to be less than 2.0 μM)” and the Emax (M4 muscarinic receptor) was greater than 100%. For the same molecule, the “M4 Activity” value (M4 muscarinic receptor) was “xxx (activity was measured to be less than 2.0 μM)”.

With `CN(C)C(=O)N1CC2(CCN(C3CCN(C(=O)C4CC4)CC3)CC2)c2cc(F)ccc21` [compound 701] the Emax (M1 muscarinic receptor) was 25 to 100%, the “M1 Activity” value (M1 muscarinic receptor) was “xxx (activity was measured to be less than 2.0 μM)” and the Emax (M4 muscarinic receptor) was 25 to 100%. For the same molecule, the “M4 Activity” value (M4 muscarinic receptor) was “xxx (activity was measured to be less than 2.0 μM)”.
